{"source": "patent US6946453B2", "about": "“4-dedimethylaminotracycline derivatives” (CollaGenex Pharmaceuticals, Inc., priority 1998, dated 2005)", "tested_on": "BALB/c 3T3 (CCL-163) cells", "description": "The assay used to assess phototoxicity is the so-called 3T3 Phototoxicity Assay. The assay compares the cytotoxicity of a series of doses of a test compound in the presence and absence of UVA/visible light.\nBriefly, serial dilutions of a test compound are prepared, and are incubated with 3T3 cells in two 96-well plates. Following an initial incubation, the cells in one plate, the test cells receiving both the chemical and light, are exposed to UVA/visible light. In the second plate, the test cells receiving only the test chemical were treated the same way, except they are kept in the dark for the same amount of time.\nTwenty-four hours after exposure, the test cells and the control cells are then incubated with neutral red dye. Neutral red dye is used to measure the relative number of living cells in each well. Live cells are stained with the dye while dead cells are not.\nPhototoxicity is measured by the relative toxicity between the doses with and without light exposure following published guidelines.\nStreptomycin sulfate ([…]) and penicillin (100 IU/ml) were added to the medium after the cells were treated with test article in 96-well plates.\nSerial dilutions of the tetracycline derivatives were prepared in DMSO at concentrations 100× to final testing concentration. The COL dilutions in DMSO were then diluted in Hanks' Balanced Salt Solution (HBSS) for application to the cells. The final DMSO concentration was 1% in treated and control cultures. A dose range finding assay is conducted with eight serial dilutions covering a range of 100-0.03 μg/ml in half log steps. Definitive assays are conducted with 6-8 serial dilutions prepared in quarter log steps, centered on the expected 50% toxicity point as determined in the dose range finding assay. One hundred 100 μg/ml was the highest dose recommended to prevent false negative results from UV absorption by the dosing solutions. One dose range finding and at least two definitive trials were performed on each tetracycline derivative and control compound.\nControls: Each assay included both negative (solvent) and positive controls. Twelve wells of negative control cultures were used on each 96-well plate. Chlorpromazine (Sigma Chemicals) was used as the positive control and was prepared and dosed like the test tetracycline derivatives.\nSolar Simulator: A Dermalight SOL 3 solar simulator, equipped with a UVA H1 filter (320-400 nm), was adjusted to the appropriate height. Measurement of energy through the lid of a 96-well microtiter plate was carried out using a calibrated UV radiometer UVA sensor. Simulator height was adjusted to deliver 1.7±0.1 mW/cm^2 of UVA energy (resulting dose was 1 J/cm^2 per 10 minutes of exposure).\nPhototoxicity Assay: Duplicate plates were prepared for each test material by seeding 10^4 3T3 cells per well in complete medium 24 hours before treatment. Prior to treatment, the medium was removed, and the cells washed once with 125 μl of prewarmed HBSS. Fifty μl of prewarmed HBSS were added to each well. Fifty μl of each test article dilution were added to the appropriate wells and the plates returned to the incubator for approximately one hour. Six wells were treated with each dose of test or control article on each plate. Following the 1 hr incubation, the plates designated for the photo irradiation were exposed (with the lid on) to 1.7±0.1 mW/cm^2 UVA light for 50±2 minutes at room temperature resulting in an irradiation dose of 5 J/cm^2. Duplicate plates, designated for the measurement of cytotoxicity without light, were kept in the dark room temperature for 50±2 minutes. After the 50 minute exposure period (with or without light) the test article dilutions were decanted from the plates and the cells washed once with 125 μl of HBSS. One hundred μl of medium were added to all wells and the cells incubated as above for 24±1 hours.", "note": "Where two headings read alike, the source gives them in different places.", "data": [{"molecule": "NC(=O)C1=C(O)C[C@@H]2C[C@@H]3Cc4cccc(O)c4C(=O)C3=C(O)[C@]2(O)C1=O", "note": "[COL 3, 6-demethyl-6-deoxy-4-dedimethylaminotetracycline]", "values": [{"measurement": "PIF 2 (photoirritancy factor, IC50(-UVA)/IC50(+UVA), OECD draft guideline 432)", "result": 84.72}]}, {"molecule": "CC1c2cccc(O)c2C(=O)C2=C(O)C3(O)C(=O)C(C(N)=O)=C(O)CC3C(O)C21", "note": "(stereo not shown) [COL 8, 4-dedimethylaminodoxycycline]", "values": [{"measurement": "PIF 2 (photoirritancy factor, IC50(-UVA)/IC50(+UVA), OECD draft guideline 432)", "result": 82.61}]}, {"molecule": "CN(C)c1ccc(O)c2c1CC1CC3CC(O)=C(C(N)=O)C(=O)C3(O)C(O)=C1C2=O", "note": "(stereo not shown) [COL 10, 4-dedimethylaminominocycline]", "values": [{"measurement": "PIF 2 (photoirritancy factor, IC50(-UVA)/IC50(+UVA), OECD draft guideline 432)", "result": 2.04}]}, {"molecule": "NC(=O)C1=C(O)CC2CC3Cc4c([N+](=O)[O-])ccc(O)c4C(=O)C3=C(O)C2(O)C1=O", "note": "(stereo not shown) [COL 302, 7-nitro-6-demethyl-6-deoxy-4-dedimethylaminotetracycline]", "values": [{"measurement": "PIF 2 (photoirritancy factor, IC50(-UVA)/IC50(+UVA), OECD draft guideline 432)", "result": 23.32}]}, {"molecule": "NC(=O)C1=C(O)CC2CC3Cc4ccc([N+](=O)[O-])c(O)c4C(=O)C3=C(O)C2(O)C1=O", "note": "(stereo not shown) [COL 303, 9-nitro-6-demethyl-6-deoxy-4-dedimethylaminotetracycline]", "values": [{"measurement": "PIF 2 (photoirritancy factor, IC50(-UVA)/IC50(+UVA), OECD draft guideline 432)", "result": 13.82}]}, {"molecule": "CN(C)c1ccc2c(c1O)C(=O)C1=C(O)C3(O)C(=O)C(C(N)=O)=C(O)CC3CC1C2", "note": "(stereo not shown) [COL 306, 9-dimethylamino-6-demethyl-6-deoxy-4-dedimethylaminotetracycline]", "values": [{"measurement": "PIF 2 (photoirritancy factor, IC50(-UVA)/IC50(+UVA), OECD draft guideline 432)", "result": 1.56}]}, {"molecule": "CN(C)CC(=O)Nc1ccc2c(c1O)C(=O)C1=C(O)C3(O)C(=O)C(C(N)=O)=C(O)CC3CC1C2", "note": "(stereo not shown) [COL 309, 9-dimethylaminoacetamido-6-demethyl-6-deoxy-4-dedimethylaminotetracycline]", "values": [{"measurement": "PIF 2 (photoirritancy factor, IC50(-UVA)/IC50(+UVA), OECD draft guideline 432)", "result": 12.87}]}, {"molecule": "O=C(NCN1CCCC1)C1=C(O)CC2CC3Cc4cccc(O)c4C(=O)C3=C(O)C2(O)C1=O", "note": "(stereo not shown) [COL 312, 2-CONHCH2-pyrrolidin-1-yl-6-demethyl-6-deoxy-4-dedimethylaminotetracycline]", "values": [{"measurement": "PIF 2 (photoirritancy factor, IC50(-UVA)/IC50(+UVA), OECD draft guideline 432)", "result": 75.11}]}, {"molecule": "O=C(NCN1CCCCC1)C1=C(O)CC2CC3Cc4cccc(O)c4C(=O)C3=C(O)C2(O)C1=O", "note": "(stereo not shown) [COL 313, 2-CONHCH2-piperidin-1-yl-6-demethyl-6-deoxy-4-dedimethylaminotetracycline]", "values": [{"measurement": "PIF 2 (photoirritancy factor, IC50(-UVA)/IC50(+UVA), OECD draft guideline 432)", "result": 58.22}]}, {"molecule": "O=C(NCN1CCOCC1)C1=C(O)CC2CC3Cc4cccc(O)c4C(=O)C3=C(O)C2(O)C1=O", "note": "(stereo not shown) [COL 314, 2-CONHCH2-morpholin-1-yl-6-demethyl-6-deoxy-4-dedimethylaminotetracycline]", "values": [{"measurement": "PIF 2 (photoirritancy factor, IC50(-UVA)/IC50(+UVA), OECD draft guideline 432)", "result": 89.48}]}, {"molecule": "O=C(NCN1CCNCC1)C1=C(O)CC2CC3Cc4cccc(O)c4C(=O)C3=C(O)C2(O)C1=O", "note": "(stereo not shown) [COL 315, 2-CONHCH2-piperazin-1-yl-6-demethyl-6-deoxy-4-dedimethylaminotetracycline]", "values": [{"measurement": "PIF 2 (photoirritancy factor, IC50(-UVA)/IC50(+UVA), OECD draft guideline 432)", "result": 35.30}]}, {"molecule": "CC1c2cccc(O)c2C(=O)C2=C(O)C3(O)C(=O)C(C(=O)NCN4CCCC4)=C(O)CC3C(O)C21", "note": "(stereo not shown) [COL 807, 2-CONHCH2-pyrrolidin-1-yl-4-dedimethylaminodoxycycline]", "values": [{"measurement": "PIF 1 (photoirritancy factor, IC50(-UVA)/IC50(+UVA), earlier software)", "result": 40.4}]}, {"molecule": "CN(C)c1cc([N+](=O)[O-])c(O)c2c1CC1CC3CC(O)=C(C(N)=O)C(=O)C3(O)C(O)=C1C2=O", "note": "(stereo not shown) [COL 1002, 9-nitro-4-dedimethylaminominocycline]", "values": [{"measurement": "PIF 2 (photoirritancy factor, IC50(-UVA)/IC50(+UVA), OECD draft guideline 432)", "result": 1.35}]}, {"molecule": "CN(C)CCCN1c2ccccc2Sc2ccc(Cl)cc21", "note": "[Chlorpromazine, reference compound]", "values": [{"measurement": "PIF 2 (photoirritancy factor, IC50(-UVA)/IC50(+UVA), OECD draft guideline 432)", "setting": "mouse, 110 min", "result": 40.38}]}, {"molecule": "C[C@H]1c2cccc(O)c2C(=O)C2=C(O)[C@]3(O)C(=O)C(C(N)=O)=C(O)[C@@H](N(C)C)[C@@H]3[C@@H](O)[C@@H]21", "note": "[Doxycycline, doxycycline, reference compound]", "values": [{"measurement": "PIF 2 (photoirritancy factor, IC50(-UVA)/IC50(+UVA), OECD draft guideline 432)", "setting": "mouse, 110 min", "result": 26.71}]}, {"molecule": "COL 2", "values": [{"measurement": "MPE (mean photo effect)", "setting": "BALB/c 3T3 cells, cytotoxicity with vs without 5 J/cm^2 UVA, neutral red, OECD draft guideline 432 software", "result": 0.005}]}]}
